Reference: PMC6855259, “Acylation-coupled lipophilic induction of polarisation (Acyl-cLIP): a universal assay for lipid transferase and hydrolase enzymes” (Chemical Science, 2019)
Counter-ions that a name gives are not always drawn.

Key:
[1] = Detergent/BSA titration for polarised emission of Pal-SHH-FAM (fluorescence anisotropy); settings: titration with Pal-SHH-FAM; read-out: detergent concentration required for half-maximal polarised signal (EC50)
Method: Fluorescence measurements were recorded on an EnVision Xcite 2104 (PerkinElmer).
FAM-labelled peptides were measured using a FITC FP D505fp mirror module, FITC FP 480 nm excitation filter (30 nm bandwidth), FITC FP P-pol 535 nm first emission filter (40 nm bandwidth), and FITC FP S-pol 535 nm second emission filter (40 nm bandwidth). Continuous reaction monitoring was conducted using measurement height = 9.52 mm, 8 flashes/well, PMT gain = 319, and G-factor = 1.09.
TAMRA-labelled peptides were measured using a BODIPY TMR FP D555fp mirror module, BODIPY TMR FP 531 nm excitation filter (25 nm bandwidth), BODIPY TMR FP P-pol 579 nm first emission filter (25 nm bandwidth), and BODIPY TMR FP S-pol 579 nm second emission filter (25 nm bandwidth). Continuous reaction monitoring was conducted using measurement height = 6.5 mm, 200 flashes/well, PMT gain = 255, and G-factor = 1.6.
Detergents (2 mM) or BSA (0.15 mM) were tested for generation of polarised fluorescence from Pal-SHH-FAM or SHH-FAM (0.1 µM) in 100 mM MES, 20 mM NaCl. Detergent and BSA titrations were performed using 2-fold serial dilutions.

[2] = cited from earlier work
BSA = target: BSA; set-up: method as in PMID 11964183; settings: read-out: Kd of BSA for palmitic acid; cited from earlier work
[3] = test system: SHH acylation in HEK-293 SHH+ cells; assay: In-cell YnC15 tagging assay of SHH acylation; format: cell-based, human; settings: inhibitors 20 µM, YnC15, AzTB ligation; for inhibition of SHH acylation (YnC15 tagging) by in-gel fluorescence: IGF; for inhibition of SHH acylation assessed by increased molecular weight in anti-SHH blotting: α-SHH western blot
Method: In-Cell YnC15 Tagging Assay
HEK293a SHH+ cells (500,000 cells/well) were plated in a 6-well plate in DMEM/FBS (3 mL/well) and cultured for 24 h. Cells were treated with inhibitors in DMSO (20 µM), two RUSKI-201 (20 µM) blind-positive controls and two DMSO (7.5 µL) blind-negative controls.
After 1 h, YnC15 (3 µL, 20 mM in DMSO) was added and cells cultured for a further 6 h before washing with PBS. Cells were lysed in PBS with Triton X-100 (1%), SDS (0.1% (w/v)) and Complete EDTA-free protease inhibitor cocktail (Roche Diagnostics). Cells were removed from plates by scraping, and lysates centrifuged (13,000 g, 10 min, 4 °C). The protein concentration of the supernatant was estimated using the DC Protein Assay (Bio-Rad) and adjusted to 1 mg/mL with lysis buffer. AzTB (1 µL, 10 mM in DMSO), CuSO4 (2 µL, 50 mM in H2O), TCEP (2 µL, 50 mM in H2O) and TBTA (1 µL, 10 mM in DMSO) were combined, and this mixture (6 µL) added to the lysate (100 µL). Samples were shaken at RT for 1 h, then proteins precipitated by addition of methanol (200 µL), chloroform (50 µL) and water (100 µL) followed by centrifugation (13,000 g, 5 min, 4 °C). The upper aqueous layer was removed without disturbing the protein layer at the interphase, methanol (0.5 mL) was added, and the precipitated proteins isolated by centrifugation (13,000 g, 10 min, 4 °C). Protein pellets were […]
(§1) washed twice with methanol, briefly air-dried and re-dissolved in PBS containing SDS (0.2% (w/v)) and DTT (0.1 mM) using sonication to a final concentration of 1 mg/mL.
(§2) 10 µg of protein were separated on a 15% SDS-polyacrylamide gel. Fluorescence was recorded using a Typhoon imager (GE Healthcare; excitation laser: 532 nm, emission filter:
(§3) Proteins were transferred to a nitrocellulose membrane by wet transfer (100 V, 1 h), and membranes blocked with BSA (5% (w/v)) in TBS-T (50 mM TRIS, 150 mM NaCl, 0.1% Tween-20, pH 7.5) for 1 h at RT, followed by overnight incubation at 4°C with rabbit α-SHH (Santa Cruz Biotechnology; sc-9024; 1:200) in TBS-T with BSA (0.5% (w/v)) or mouse α-Tubulin (Santa Cruz Biotechnology; sc-8035; 1:200) in TBS-T with BSA (0.5% (w/v)). Membranes were washed with TBS-T (4 × 5 min) and incubated at RT for 1 h with HRP-conjugated Goat-α-mouse IgG (Advansta; 1:10,000) in TBS-T with BSA (0.5% (w/v)) or Goat-α-rabbit IgG (Advansta; 1:10,000) in TBS-T with BSA (0.5% (w/v)). Membranes were washed with TBS-T (4 × 5 min) and developed with Luminata Crescendo Western HRP substrate (Millipore) on a Fujifilm LAS-3000 imager. YnC15-labelled SHH band intensities were quantified using ImageJ 1.50i (National Institute of Health, USA).
HEK293a SHH+ cells (5,000 cells/well) were plated in a 96-well plate in DMEM/FBS […]
(50 µL/well) and cultured for 24 h. […]

[4] = test system: HH signalling in SHH-Light2 cells; assay: SHH-Light2 signalling assay (Firefly luciferase); format: cell-based; settings: inhibitors 0.041-30 µM
Method: (§4) SHH-Light2 Signalling Assay
(§5) HEK293a SHH+ cells (120,000 cells/well) were plated in a 12-well cell culture treated plate (Nunc) in DMEM/FBS (1 mL/well) and cultured for 24 h. Cells were washed with PBS, followed by the addition of DMEM/FBS (1 mL) containing DMSO (0.2%) or varying inhibitor concentrations in DMSO (0.041-30 µM). SHH-Light2 cells (20,000 cells/well) were plated in a 96-well plate in DMEM/FCS (50 µL/well). After 24 h, conditioned medium (300 µL) was removed from each well of the HEK293a SHH+ cells, centrifuged (1,000 g, 10 min), and added to three wells of SHH-Light2 cells (100 µL/well, 150 µL final volume). SHH-Light2 cells were cultured for a further 48 h, and washed with PBS prior to analysis. Firefly and Renilla luciferase activity was recorded using the Dual-Luciferase reporter system (Promega Corporation, USA).
(§6) Passive lysis buffer (20 µL) was added to each well and cells incubated for 30 min at RT. The lysate (5 µL) was transferred to a white opaque 96-well plate (Corning, 3362). Luciferase Assay Reagent II (20 µL/well) was added and the luminescence immediately recorded using a SpectraMax i3x spectrophotometer (Molecular Devices LLC). Stop&Glo (1x) substrate in Stop&Glo buffer (20 µL/well) was added and the luminescence immediately recorded. […]

HEK-293 SHH+ cells = assay: MTS viability assay; format: cell-based, human; settings: 72 h, inhibitors 0.14-100 µM
Method: as §1, §2
as §3, with “Membranes were washed with TBS-T (4 × 5 min) and developed with Luminata Crescendo Western HRP substrate (Millipore) on a Fujifilm LAS-3000 imager.” left out
HEK293a SHH+ cells (5,000 cells/well) were plated in a 96-well plate in DMEM/FBS (50 µL/well) and cultured for 24 h. […] The absorption at 490 nm was recorded using an EnVision Xcite 2104 and responses normalised to vehicle control and background corrected to Puromycin-treated samples.

HHAT = target: T1, HHAT (Homo sapiens, UniProt Q5VTY9); assay: Pilot HTS Acyl-cLIP screen of FDA-approved drugs, purified HHAT, stopped-assay conditions; format: biochemical; settings: compounds screened at 25 μM
T1 construct: FLAG (C); His (C); made in house; host or cells: HEK293a cells stably overexpressing HHAT-FLAG-His
T1 sequence (Q5VTY9 whole entry): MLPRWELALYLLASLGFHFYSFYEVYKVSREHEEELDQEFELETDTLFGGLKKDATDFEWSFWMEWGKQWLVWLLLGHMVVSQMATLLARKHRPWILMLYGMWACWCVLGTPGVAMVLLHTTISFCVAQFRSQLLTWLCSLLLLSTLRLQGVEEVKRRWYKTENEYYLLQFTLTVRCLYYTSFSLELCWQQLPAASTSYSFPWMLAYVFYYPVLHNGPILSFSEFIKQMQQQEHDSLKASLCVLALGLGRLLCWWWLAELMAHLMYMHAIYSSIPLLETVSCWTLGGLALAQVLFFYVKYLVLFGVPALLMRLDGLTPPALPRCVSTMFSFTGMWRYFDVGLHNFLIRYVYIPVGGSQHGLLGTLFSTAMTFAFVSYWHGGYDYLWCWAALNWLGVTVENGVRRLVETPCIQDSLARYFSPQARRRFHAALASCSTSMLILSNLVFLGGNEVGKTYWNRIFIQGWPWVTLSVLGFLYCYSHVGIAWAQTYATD

SHH-Light2 cells = assay: Constitutive Renilla luciferase control for cellular viability in SHH-Light2 assay; format: cell-based
Method: as §4, §5, §6

Compound: Triton™ X-100 [TX-100]
- EC50 [1]: 180 µM
- critical micelle concentration (CMC) [2]: 200 µM

Compound: CCCCCCCCCCCCCCCC(=O)O [palmitic acid]
- Kd (BSA): 0.104 µM

Compound: CN(C)CCCN1c2ccccc2CCc2ccc(Cl)cc21 [Clomipramine·HCl]
- inhibition of SHH acylation (YnC15 tagging) by in-gel fluorescence ([3]; listed as Clomipramine): inhibition
- inhibition of SHH acylation (YnC15 tagging) by in-gel fluorescence ([3]; listed as clomipramine): showed inhibition of SHH acylation
- inhibition of SHH acylation assessed by increased molecular weight in anti-SHH blotting [3]: did not show inhibition of SHH acylation
- concentration at which HH signalling is inhibited ([4]; listed as Clomipramine): 30 µM
- concentration at which HH signalling is inhibited ([4]; listed as clomipramine): > 30 µM
- viability in MTS assay (HEK-293 SHH+ cells; listed as Clomipramine): cytotoxicity
- viability in MTS assay (HEK-293 SHH+ cells; listed as clomipramine): decreased viability at high concentrations

Compound: CCCCCCCCCCCCO[C@@H]1O[C@H](CO)[C@@H](O[C@H]2O[C@H](CO)[C@@H](O)[C@H](O)[C@H]2O)[C@H](O)[C@H]1O [DDM, n-dodecyl β-D-maltoside]
- EC50 [1]: 150 µM
- critical micelle concentration (CMC) [2]: 170 µM

Compound: CC(C)C[C@H]1C(=O)N2CCC[C@H]2[C@]2(O)O[C@](NC(=O)[C@@H]3C=C4c5cccc6[nH]c(Br)c(c56)C[C@H]4N(C)C3)(C(C)C)C(=O)N12 [Bromocriptine Mesylate]
- inhibition at 25 µM (HHAT): > 80%
- inhibition of SHH acylation (YnC15 tagging) by in-gel fluorescence ([3]; listed as Bromocriptine): inhibition
- inhibition of SHH acylation (YnC15 tagging) by in-gel fluorescence ([3]; listed as bromocriptine): showed inhibition of SHH acylation
- inhibition of SHH acylation assessed by increased molecular weight in anti-SHH blotting [3]: did not show inhibition of SHH acylation
- cytotoxicity in SHH-Light2 signalling assay (SHH-Light2 cells): general cytotoxicity
